Results as given in ChEMBL document CHEMBL5352401, “Novel cudraisoflavone J derivatives as potent neuroprotective agents for the treatment of Parkinson's disease via the activation of Nrf2/HO-1 signaling” (Eur J Med Chem, 2022).
Active and inactive are the calls of the source. The rule behind the calls is not given here.

Columns and labels:
[1] = Neurotoxicity in rotenone induced at rat PC-12 cells assessed as cell viability pretreated with compound for 4 hrs followed by rotenone addition measured after 24 hrs by MTT assay; assay type: toxicity, cell-based
[2] = Neurotoxicity in rotenone induced at rat PC-12 cells assessed as cell viability at 30 uM pretreated for 4 hrs followed by rotenone addition measured after 24 hrs by MTT assay (reference value: 53.4 +/- 2.6%); assay type: toxicity, cell-based; settings: time 28 hrs, read-out: Activity
PC-12 [3] = experiment: Cytotoxicity in rat PC-12 cells assessed as cell viability incubated for 24 hrs by MTT assay; assay type: functional, cell-based; settings: PC-12, 24 h
PC-12 [4] = experiment: Neuroprotective activity against 6-OHDA-induced cytotoxicity in rat PC-12 cells for 4 hrs followed by exposure to 6-OHDA measured after 24 hrs by MTT assay; assay type: functional, cell-based; settings: dose 0.1-30 µM, time 28.0 hrs
PC-12 [5] = experiment: Cytotoxicity in rat PC-12 cells assessed as cell viability measured upto 30 uM for 24 hrs by MTT assay; assay type: functional, cell-based
PC-12 [6] = experiment: Neuroprotective activity against 6-OHDA-induced cytotoxicity in rat PC-12 cells at 10 to 30 uM for 4 hrs followed by exposure to 6-OHDA measured after 24 hrs by MTT assay; assay type: functional, cell-based; settings: dose 10-30 µM, time 28.0 hrs
PC-12 [7] = experiment: Cytotoxicity in rat PC-12 cells assessed as cell viability measured at 30 uM for 24 hrs by MTT assay relative to control; assay type: functional; settings: read-out: Activity
PC-12 [8] = experiment: Cytotoxicity in rat PC-12 cells assessed as cell viability measured upto 30 uM for 24 hrs by MTT assay relative to control; assay type: functional; settings: up to 30 µM
PC-12 [9] = experiment: Cytotoxicity in rat PC-12 cells assessed as cell viability measured at 10 to 30 uM for 24 hrs by MTT assay; assay type: functional, cell-based; settings: dose 10-30 µM
PC-12 [10] = experiment: Neuroprotective activity against 6-OHDA-induced cytotoxicity in rat PC-12 cells at 0.1 uM for 4 hrs followed by exposure to 6-OHDA measured after 24 hrs by MTT assay; assay type: functional, cell-based; settings: time 28.0 hrs
[11] = target: T1, Nuclear factor erythroid 2-related factor 2 (Rattus norvegicus) (UniProt O54968); experiment: Induction of Nrf2 nuclear translocation in rat PC12 cells assessed as increase in phosphorylation of JNK pretreated with SP600125 for 2 hrs followed by compound addition at 10 uM for 2 to 3 hrs by Western blotting analysis; assay type: cell-based; settings: PC-12, time 2-3 hrs
T1 sequence (whole entry): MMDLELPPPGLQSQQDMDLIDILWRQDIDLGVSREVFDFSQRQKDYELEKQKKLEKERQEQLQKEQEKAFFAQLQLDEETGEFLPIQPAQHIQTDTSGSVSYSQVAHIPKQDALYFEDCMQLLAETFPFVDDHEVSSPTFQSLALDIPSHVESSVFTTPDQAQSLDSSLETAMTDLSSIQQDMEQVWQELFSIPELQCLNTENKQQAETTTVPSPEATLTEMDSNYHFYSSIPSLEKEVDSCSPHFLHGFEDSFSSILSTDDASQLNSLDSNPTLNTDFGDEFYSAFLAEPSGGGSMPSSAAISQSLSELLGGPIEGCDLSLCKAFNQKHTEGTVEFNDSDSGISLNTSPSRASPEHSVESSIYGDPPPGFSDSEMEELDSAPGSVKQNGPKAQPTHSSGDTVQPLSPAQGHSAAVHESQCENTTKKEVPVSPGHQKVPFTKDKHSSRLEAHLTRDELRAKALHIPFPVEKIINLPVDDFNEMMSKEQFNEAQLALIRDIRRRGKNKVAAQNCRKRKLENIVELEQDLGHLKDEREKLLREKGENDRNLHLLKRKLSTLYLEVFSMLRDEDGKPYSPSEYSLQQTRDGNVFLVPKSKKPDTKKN

[12] = target: KEAP1/NRF2 (Rattus norvegicus) (UniProt O54968+P57790); experiment: Inhibition of Nrf2-Keap1 protein-protein interaction in rat PC-12 cells by Western blotting analysis; assay type: cell-based
[13] = target: T1, Nuclear factor erythroid 2-related factor 2 (Rattus norvegicus); experiment: Induction of Nrf2 nuclear translocation in rat PC12 cells assessed as increase in phosphorylation of ERK1 at 10 uM for 2 to 3 hrs by Western blotting analysis; assay type: cell-based; settings: PC-12, filed as activator, time 2-3 hrs
PC-12 [14] = experiment: Reversal of upregulation of HO-1 in rat PC-12 cells pretreated with SP600125 for 2 hrs followed by compound addition at 10 uM for 2 to 3 hrs by Western blotting analysis; assay type: functional, cell-based; settings: time 2-3 hrs
PC-12 [15] = experiment: Neuroprotective activity in rat PC-12 cells assessed as upregulation of HO-1 expression measured for 6 hrs by immunoblotting analysis; assay type: functional, cell-based; settings: dose 1-30 µM
[16] = target: T1, Nuclear factor erythroid 2-related factor 2 (Rattus norvegicus); experiment: Induction of Nrf2 nuclear translocation in rat PC12 cells assessed as increase in phosphorylation of JNK at 10 uM for 2 to 3 hrs by Western blotting analysis; assay type: cell-based; settings: PC-12, filed as activator, time 2-3 hrs
PC-12 [17] = experiment: Antiinflammatory activity in 6-OHDA-induced cytotoxicity in rat PC-12 cells assessed as reduction of fluorescence signal pretreated at 10 to 30 uM for 4 hrs followed by 6-OHDA addition treated for 6 hrs measured after 1 hr of H2-DCFDA addition by spectrophotometric analysis; assay type: functional, cell-based; settings: dose 10-30 µM, time 11.0 hrs
PC-12 [18] = experiment: Antiinflammatory activity in rotenone induced cytotoxicity in rat PC-12 cells assessed as reduction of ROS production pretreated at 10 to 30 uM for 4 hrs followed by rotenone addition treated for 6 hrs measured after 1 hr of H2-DCFDA addition by measuring fluorescence; assay type: functional, cell-based; settings: dose 10-30 µM, time 11.0 hrs
[19] = target: T1, Nuclear factor erythroid 2-related factor 2 (Rattus norvegicus); experiment: Inhibition of Nrf2 nuclear translocation in rat PC12 cells assessed as increase in phosphorylation of p38 MAPK pretreated with SB203580 for 2 hrs followed by compound addition at 10 uM for 2 to 3 hrs by Western blotting analysis; assay type: cell-based; settings: PC-12, time 2-3 hrs
[20] = target: T1, Nuclear factor erythroid 2-related factor 2 (Rattus norvegicus); experiment: Induction of Nrf2 nuclear translocation in rat PC12 cells at 10 uM for 3 hrs by Western blotting analysis; assay type: cell-based; settings: PC-12, filed as activator
[21] = target: T1, Nuclear factor erythroid 2-related factor 2 (Rattus norvegicus); experiment: Induction of Nrf2 nuclear translocation in rat PC12 cells assessed as increase in phosphorylation of ERK1 pretreated with U0126 for 2 hrs followed by compound addition at 10 uM for 2 to 3 hrs by Western blotting analysis; assay type: cell-based; settings: PC-12, time 2-3 hrs
[22] = target: T1, Nuclear factor erythroid 2-related factor 2 (Rattus norvegicus); experiment: Induction of Nrf2 nuclear translocation in rat PC12 cells assessed as change in phosphorylation of p38 MAPK level at 10 uM for 2 to 3 hrs by Western blotting analysis; assay type: cell-based; settings: PC-12, time 2-3 hrs
PC-12 [23] = experiment: Antiinflammatory activity in 6-OHDA-induced cytotoxicity in rat PC-12 cells assessed as reduction of ROS production pretreated at 10 to 30 uM for 4 hrs followed by 6-OHDA addition treated for 6 hrs measured after 1 hr of H2-DCFDA addition by measuring fluorescence; assay type: functional, cell-based; settings: dose 10-30 µM, time 11.0 hrs
PC-12 [24] = experiment: Cytotoxicity in 6-OHDA induced rat PC-12 cells assessed as cell viability pretreated with ZnPP for 30 mins followed by compound addition at 10 uM for 4 hrs and measured after 24 hrs of […] addition by MTT assay; assay type: functional, cell-based; settings: time 28.0 hrs
[25] = target: T1, Nuclear factor erythroid 2-related factor 2 (Rattus norvegicus); experiment: Induction of Nrf2 nuclear translocation in rat PC12 cells assessed as increase in phosphorylation of ERK2 pretreated with U0126 for 2 hrs followed by compound addition at 10 uM for 2 to 3 hrs by Western blotting analysis; assay type: cell-based; settings: PC-12, time 2-3 hrs
Brain = experiment: Antioxidant activity in Fe2+/L-ascorbic acid induced Sprague-Dawley rat brain homogenate assessed as inhibition of lipid peroxide production measured at 100 uM after 60 mins by microplate reader method relative to control; assay type: functional, tissue-based
PC-12 [26] = experiment: Neuroprotective activity against 6-OHDA-induced cytotoxicity in rat PC-12 cells at 30 uM for 4 hrs followed by exposure to 6-OHDA measured after 24 hrs by MTT assay; assay type: functional, cell-based; settings: time 28.0 hrs
PC-12 [27] = experiment: Reversal of upregulation of HO-1 in rat PC-12 cells pretreated with U0126 for 2 hrs followed by compound addition at 10 uM for 2 to 3 hrs by Western blotting analysis; assay type: functional, cell-based; settings: time 2-3 hrs
[28] = target: T1, Nuclear factor erythroid 2-related factor 2 (Rattus norvegicus); experiment: Induction of Nrf2 nuclear translocation in rat PC12 cells assessed as increase in phosphorylation of ERK2 at 10 uM for 2 to 3 hrs by Western blotting analysis; assay type: cell-based; settings: PC-12, filed as activator, time 2-3 hrs
[29] = target: T1, Nuclear factor erythroid 2-related factor 2 (Rattus norvegicus); experiment: Induction of Nrf2 nuclear translocation in rat PC12 cells assessed as increase in phosphorylation of AKT at 10 uM for 2 to 3 hrs by Western blotting analysis; assay type: cell-based; settings: PC-12, filed as activator, time 2-3 hrs
[30] = target: T1, Nuclear factor erythroid 2-related factor 2 (Rattus norvegicus); experiment: Induction of Nrf2 nuclear translocation in rat PC12 cells assessed as increase in phosphorylation of Akt pretreated with LY294002 for 2 hrs followed by compound addition at 10 uM for 2 to 3 hrs by Western blotting analysis; assay type: cell-based; settings: PC-12, time 2-3 hrs
PC-12 [31] = experiment: Antiinflammatory activity in rotenone induced cytotoxicity in rat PC-12 cells assessed as reduction of fluorescence signal pretreated at 10 to 30 uM for 4 hrs followed by rotenone addition treated for 6 hrs measured after 1 hr of H2-DCFDA addition by spectrophotometric analysis; assay type: functional, cell-based; settings: dose 10-30 µM, time 11.0 hrs
PC-12 [32] = experiment: Reversal of upregulation of HO-1 in rat PC-12 cells pretreated with LY294002 for 2 hrs followed by compound addition at 10 uM for 2 to 3 hrs by Western blotting analysis; assay type: functional, cell-based; settings: time 2-3 hrs
PC-12 [33] = experiment: Upregulation of HO-1 expression in si-RNA mediated Nrf2 knock down rat PC-12 cells measured by immunoblotting analysis; assay type: functional, cell-based
PC-12 [34] = experiment: Neuroprotective activity in rat PC-12 cells assessed as fold increase in upregulation of HO-1 expression measured at 30 uM for 6 hrs by immunoblotting analysis; assay type: functional
PC-12 [35] = experiment: Neuroprotective activity in rat PC-12 cells assessed as upregulation of HO-1 expression measured at 10 uM after 3 to 6 hrs by immunoblotting analysis; assay type: functional, cell-based; settings: time 3-6 hrs
PC-12 [36] = experiment: Cytotoxicity in rat PC-12 cells assessed as cell viability measured at 30 uM for 24 hrs by MTT assay; assay type: functional, cell-based

COc1cccc(-c2coc3cc(O)c4c(c3c2=O)OC(C)(C)C(O)C4)c1 (configuration not stated)
IC50 [1]: 5.5 µM
viability at 30 µM [2]: 80.3%
IC50 (PC-12 [3]): 8 µM
Activity (PC-12 [4]): Dose-Dependent Effect
Activity (PC-12 [5]): inactive
Activity (PC-12 [6]): Active
viability at 30 µM (PC-12 [7]): 86%

CCOc1ccc(-c2coc3cc4c(c(O)c3c2=O)C=CC(C)(C)O4)cc1
Activity (PC-12 [8]): ~80%
Activity (PC-12 [9]): inactive
Activity (PC-12 [10]): Active
Activity (PC-12 [6]): Active

COc1ccc(-c2coc3cc(O)c4c(c3c2=O)OC(C)(C)C=C4)cc1
Activity [11]: inactive
inhibition [12]: Active
IC50 [1]: 4.8 µM
Activity [13]: Active
Activity (PC-12 [14]): Active
Activity (PC-12 [15]): Dose-Dependent Effect
viability at 30 µM [2]: ≤ 81.8%
IC50 (PC-12 [3]): 3.9 µM
Activity [16]: Active
Activity (PC-12 [17]): Active
Activity (PC-12 [18]): Active
inhibition [19]: Active
Activity [20]: Active
Activity [21]: inactive
Activity [22]: inactive
Activity (PC-12 [23]): Active
Activity (PC-12 [24]): Active
Activity (PC-12 [4]): Dose-Dependent Effect
Activity [25]: inactive
inhibition (Brain): 28.8%
Activity (PC-12 [26]): Active
Activity (PC-12 [27]): Active
Activity [28]: Active
Activity [29]: Active
Activity [30]: inactive
Activity (PC-12 [31]): Active
Activity (PC-12 [32]): Active
Activity (PC-12 [33]): inactive
fold change (FC) (PC-12 [34]): 2
Activity (PC-12 [35]): Active
Activity (PC-12 [36]): inactive
